Where two headings read alike, the source gives them in different places.
What was measured:
[1] = target: T1, HCV NS3/4A protease complex, BMS strain (UniProt P27958, species not given/STRAIN_BMS); test: FRET peptide assay to monitor HCV NS3/4A proteolytic activity (BMS strain); format: biochemical, Hepatitis C virus (genotype 1a)
T1 construct: other: NS3/4A BMS strain; activity range class; numeric values, unit not given; said of H77 and J4L6S; fused on or other part: A three-lysine solubilising tail at the C-terminus of NS4A; A His tag is implied by the pET21b vector and Ni-NTA purification; Both are printed for the H77 and J4L6S constructs and apply to BMS by inference
T1 sequence (P27958 1027-1657, change not shown, one chain of several): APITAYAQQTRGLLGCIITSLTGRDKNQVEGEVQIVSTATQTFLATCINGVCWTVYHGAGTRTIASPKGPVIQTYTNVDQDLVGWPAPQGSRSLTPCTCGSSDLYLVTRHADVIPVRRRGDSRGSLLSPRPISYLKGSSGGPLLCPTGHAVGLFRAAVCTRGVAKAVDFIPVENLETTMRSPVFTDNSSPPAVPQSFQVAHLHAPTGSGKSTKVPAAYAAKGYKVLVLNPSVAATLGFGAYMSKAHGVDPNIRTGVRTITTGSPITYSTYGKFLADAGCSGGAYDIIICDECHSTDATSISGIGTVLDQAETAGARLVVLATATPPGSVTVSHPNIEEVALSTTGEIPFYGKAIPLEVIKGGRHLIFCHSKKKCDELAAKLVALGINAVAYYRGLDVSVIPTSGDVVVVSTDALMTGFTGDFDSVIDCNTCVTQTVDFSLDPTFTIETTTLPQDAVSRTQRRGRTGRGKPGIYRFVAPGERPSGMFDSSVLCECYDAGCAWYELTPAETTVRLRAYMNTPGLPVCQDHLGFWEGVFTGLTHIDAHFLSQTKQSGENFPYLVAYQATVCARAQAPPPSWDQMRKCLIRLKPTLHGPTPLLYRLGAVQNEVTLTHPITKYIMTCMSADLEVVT
Description: HCV NS3 protease complexes, derived from the BMS strain, H77 strain or J4L6S strain, were generated, as described below. These purified recombinant proteins were generated for use in a homogeneous assay (see below) to provide an indication of how effective compounds of the present disclosure would be in inhibiting HCV NS3 proteolytic activity.
Serum from an HCV-infected patient was obtained from Dr. T. Wright, San Francisco Hospital. An engineered full-length cDNA (compliment deoxyribonucleic acid) template of the HCV genome (BMS strain) was constructed from DNA fragments obtained by reverse transcription-PCR (RT-PCR) of serum RNA (ribonucleic acid) and using primers selected on the basis of homology between other genotype 1a strains. From the determination of the entire genome sequence, a genotype 1a was assigned to the HCV isolate according to the classification of Simmonds et al. (See P Simmonds, K A Rose, S Graham, S W Chan, F McOmish, B C Dow, E A Follett, P L Yap and H Marsden, J. Clin. Microbiol., 31(6), 1493-1503 (1993)). […] The infectious clones, H77 (1a genotype) and J4L6S (1b genotype) were obtained from R. Purcell (NIH) and the sequences are published in Genbank (AAB67036, see Yanagi, M., Purcell, R. H., Emerson, S. U. and Bukh, J. Proc. Natl. Acad. Sci. U.S.A. 94(16), 8738-8743 (1997); AF054247, see Yanagi, M., St Claire, M., Shapiro, M., Emerson, S. U., Purcell, R. H. and Bukh, J. Virology 244 (1), 161-172. (1998)).
NS3/4A protease complex-containing fractions were pooled and loaded on a desalting column Superdex-S200 pre-equilibrated with buffer D (25 mM HEPES, pH 7.5, 20% glycerol, 300 mM NaCl, 0.2% Triton X-100, 10 mM βME). Sample was loaded at a flow rate of 1 mL/min. NS3/4A protease complex-containing fractions were pooled and concentrated to approximately 0.5 mg/ml. The purity of the NS3/4A protease complexes, derived from the BMS, H77 and J4L6S strains, were judged to be greater than 90% by SDS-PAGE and mass spectrometry analyses. The enzyme was stored at −80° C., thawed on ice and diluted prior to use in assay buffer.
The purpose of this in vitro assay was to measure the inhibition of HCV NS3 protease complexes, derived from the BMS strain, H77 strain or J4L6S strain, as described above, by compounds of the present disclosure. This assay provides an indication of how effective compounds of the present disclosure would be in inhibiting HCV NS3 proteolytic activity.
In order to monitor HCV NS3/4A protease activity, an NS3/4A peptide substrate was used. The substrate was RET S1 (Resonance Energy Transfer Depsipeptide Substrate; AnaSpec, Inc. cat #22991) (FRET peptide), described by Taliani et al. in Anal. Biochem. 240(2):60-67 (1996). The sequence of this peptide is loosely based on the NS4A/NS4B natural cleavage site for the HCV NS3 protease except there is an ester linkage rather than an amide bond at the cleavage site. The peptide also contains a fluorescence donor, EDANS, near one end of the peptide and an acceptor, DABCYL, near the other end. The fluorescence of the peptide is quenched by […] resonance energy transfer (RET) between the donor and the acceptor, but as the NS3 protease cleaves the peptide the products are released from RET quenching and the fluorescence of the donor becomes apparent.
The peptide substrate was incubated with one of the three recombinant NS3/4A protease complexes, in the absence or presence of a compound of the present disclosure. The inhibitory effects of a compound were determined by monitoring the formation of fluorescent reaction product in real time using a Cytofluor Series 4000.
Assay buffer: 50 mM HEPES, pH 7.5; 0.15 M NaCl; 0.1% Triton; 15% Glycerol; 10 mM βME. Substrate: 2 μM final concentration (from a 2 mM stock solution in DMSO stored at −20° C.). HCV NS3/4A protease type 1a (1b), 2-3 nM final concentration (from a 5 μM stock solution in 25 mM HEPES, pH 7.5, 20% glycerol, 300 mM NaCl, 0.2% Triton-X100, 10 mM βME). […]

[2] = tested on: HCV replicon (strain 1b) in HUH-7 cells; test: HCV replicon FRET assay; format: cell-based, Hepatitis C virus; conditions: activity range class
Description: An HCV replicon whole cell system was established as described by Lohmann V, Korner F, Koch J, Herian U, Theilmann L, Bartenschlager R., Science 285(5424): 110-3 (1999). This system enabled us to evaluate the effects of our HCV Protease compounds on HCV RNA replication. Briefly, using the HCV strain 1b sequence described in the Lohmann paper (Assession number: AJ238799), an HCV cDNA was synthesized by Operon Technologies, Inc. (Alameda, Calif.), and the full-length replicon was then assembled in plasmid pGem9zf(+) (Promega, Madison, Wis.) using standard molecular biology techniques. The replicon consists of (i) the HCV 5′ UTR fused to the first 12 amino acids of the capsid protein, (ii) the neomycin phosphotransferase gene (neo), (iii) the IRES from encephalomyocarditis virus (EMCV), and (iv) HCV NS3 to NS5B genes and the HCV 3′ UTR. Plasmid DNAs were linearized with ScaI and RNA transcripts were synthesized in vitro using the T7 MegaScript transcription kit (Ambion, Austin, Tex.) according to manufacturer's directions. In vitro transcripts of the cDNA were transfected into the human hepatoma cell line, HUH-7. […] Resulting cell lines were characterized for positive and negative strand RNA production and protein production over time.
The HCV replicon FRET assay was developed to monitor the inhibitory effects of compounds described in the disclosure on HCV viral replication. HUH-7 cells, constitutively expressing the HCV replicon, were grown in Dulbecco's Modified Eagle Media (DMEM) (Gibco-BRL) containing 10% Fetal calf serum (FCS) (Sigma) and 1 mg/ml G418 (Gibco-BRL). Cells were seeded the night before (1.5×10^4 cells/well) in 96-well tissue-culture sterile plates. Compound and no compound controls were prepared in DMEM containing 4% FCS, 1:100 Penicillin/Streptomysin (Gibco-BRL), 1:100 L-glutamine and 5% DMSO in the dilution plate (0.5% DMSO final concentration in the assay). Compound/DMSO mixes were added to the cells and incubated for 4 days at 37° C. After 4 days, cells were first assessed for cytotoxicity using alamar Blue (Trek Diagnotstic Systems) for a CC50 reading. The toxicity of compound (CC50) was determined by adding 1/10th volume of alamarBlue to the media incubating the cells. After 4 hours, the fluorescence signal from each well was read, with an excitation wavelength at 530 nm and an emission wavelength of 580 nm, using the Cytofluor Series 4000 (Perspective Biosystems). Plates were then rinsed thoroughly with Phosphate-Buffered Saline (PBS) (3 times 150 μl).

[3] = read-out: HCV Protease (IC50); NS3/4A BMS strain; activity range class
[4] = Hepatitis C virus, Huh-7, read-out: HCV Pro Replicon (EC50), HCV replicon cell assay

| SMILES | IC50 [1, 3] [nM] | other results |
| --- | --- | --- |
| C=C[C@@H]1C[C@]1(NC(=O)[C@@H]1C[C@@H](Oc2nccc3cc(OC)ccc23)CN1C(=O)C(Nc1nc(OC)cc(OC)n1)C(C)C)C(=O)NS(=O)(=O)C1CC1 (mixture of isomers) [Compound 5, N-(4,6-dimethoxy-2-pyrimidinyl)valyl-(4R)—N-((1R,2S)-1-((cyclopropylsulfonyl)carbamoyl)-2-vinylcyclopropyl)-4-((6-methoxy-1-isoquinolinyl)oxy)-L-prolinamide] | 20 to 200 | EC50 [2, 4]: 100 to 1000 nM |
| C=C[C@@H]1C[C@]1(NC(=O)[C@@H]1C[C@@H](Oc2nccc3cc(OC)ccc23)CN1C(=O)C(Nc1cc(C#N)ccn1)C(C)C)C(=O)NS(=O)(=O)C1CC1 (mixture of isomers) [Compound 11, N-(4-cyano-2-pyridinyl)valyl-(4R)—N-((1R,2S)-1-((cyclopropylsulfonyl)carbamoyl)-2-vinylcyclopropyl)-4-((6-methoxy-1-isoquinolinyl)oxy)-L-prolinamide] | 0.6 to 20 | EC50 [2, 4]: 3 to 100 nM |
| C=C[C@@H]1C[C@]1(NC(=O)[C@@H]1C[C@@H](Oc2nc(N(C)C)cc3cc(OC)ccc23)CN1C(=O)C(Nc1ccccc1)C(C)(C)C)C(=O)NS(=O)(=O)C1CC1 (single isomer, unassigned) [19 first isomer] | 0.6 to 20 | EC50 [2, 4]: 3 to 100 nM |
| C=C[C@@H]1C[C@]1(NC(=O)[C@@H]1C[C@@H](Oc2nc(OC)cc3cc(OC)ccc23)CN1C(=O)C(Nc1ccccc1)C(C)(C)C)C(=O)NS(=O)(=O)C1CC1 (single isomer, unassigned) [20 first isomer] | 0.6 to 20 | EC50 ([2]; read-out: HCV Pro Replicon (EC50), HCV replicon cell assay): 3 to 100 nM |
| C=C[C@@H]1C[C@]1(NC(=O)[C@@H]1C[C@@H](Oc2ncc(OC)c3ccc(Cl)cc23)CN1C(=O)C(Nc1ccc(OC(F)F)nc1)C(C)(C)C)C(=O)NS(=O)(=O)C1CC1 (single isomer, unassigned) [409 - first isomer] | 20 to 200 | – |
| C=C[C@@H]1C[C@]1(NC(=O)[C@@H]1C[C@@H](Oc2ncc(OC)c3ccc(Cl)cc23)CN1C(=O)C(Nc1ccc(OC(F)F)nc1)C(C)(C)C)C(=O)NS(=O)(=O)C1CC1 (single isomer, unassigned) [409 - second isomer] | > 200 | – |
| C=C[C@@H]1C[C@]1(NC(=O)[C@@H]1C[C@@H](Oc2ncc(OC)c3ccc(Cl)cc23)CN1C(=O)[C@H](Nc1cccc(C(=O)NC(C)(C)c2ccccc2)c1)C(C)(C)C)C(=O)NS(=O)(=O)C1CC1 (single isomer, unassigned; isomer 3) [216 second isomer] | – | IC50 ([1]; NS3/4A BMS strain; activity range class; read-out: HCV Protease (IC50)): > 200 nM |
| C=C[C@@H]1C[C@]1(NC(=O)[C@@H]1C[C@@H](Oc2ncc(OC)c3ccc(Cl)cc23)CN1C(=O)[C@H](Nc1cccc(F)c1F)C(C)(C)C)C(=O)NS(=O)(=O)C1CC1 [208 second isomer, N-(2,3-difluorophenyl)-3-methyl-D-valyl-(4R)-4-((7-chloro-4-methoxy-1-isoquinolinyl)oxy)-N-((1R,2S)-1-((cyclopropylsulfonyl)carbamoyl)-2-vinylcyclopropyl)-L-prolinamide] | > 200 | – |
| C=C[C@@H]1C[C@]1(NC(=O)[C@@H]1C[C@@H](Oc2ncc(OC)c3ccc(Cl)cc23)CN1C(=O)[C@H](Nc1ccc(S(=O)(=O)NC(C)(C)C)cc1)C(C)(C)C)C(=O)NS(=O)(=O)C1CC1 [214 second isomer, N-(4-(tert-butylsulfamoyl)phenyl)-3-methyl-D-valyl-(4R)-4-((7-chloro-4-methoxy-1-isoquinolinyl)oxy)-N-((1R,2S)-1-((cyclopropylsulfonyl)carbamoyl)-2-vinylcyclopropyl)-L-prolinamide] | > 200 | – |
| C=C[C@@H]1C[C@]1(NC(=O)[C@@H]1C[C@@H](Oc2ncc(OC)c3ccc(Cl)cc23)CN1C(=O)[C@H](Nc1cccc(C(N)=O)c1)C(C)(C)C)C(=O)NS(=O)(=O)C1CC1 [217 second isomer, N-(3-carbamoylphenyl)-3-methyl-D-valyl-(4R)-4-((7-chloro-4-methoxy-1-isoquinolinyl)oxy)-N-((1R,2S)-1-((cyclopropylsulfonyl)carbamoyl)-2-vinylcyclopropyl)-L-prolinamide] | > 200 | – |
| C=C[C@@H]1C[C@]1(NC(=O)[C@@H]1C[C@@H](Oc2ncc(OC)c3ccc(Cl)cc23)CN1C(=O)[C@H](Nc1ccc(C(N)=O)cc1)C(C)(C)C)C(=O)NS(=O)(=O)C1CC1 [226 second isomer, N-(4-carbamoylphenyl)-3-methyl-D-valyl-(4R)-4-((7-chloro-4-methoxy-1-isoquinolinyl)oxy)-N-((1R,2S)-1-((cyclopropylsulfonyl)carbamoyl)-2-vinylcyclopropyl)-L-prolinamide] | > 200 | – |
| C=C[C@@H]1C[C@]1(NC(=O)[C@@H]1C[C@@H](Oc2nc3c(c4cc(OC)ccc24)OCCN3C)CN1C(=O)[C@@H](Nc1ccc(F)c(F)c1)C(C)(C)C)C(=O)NS(=O)(=O)C1CC1 [235 first isomer, N-(3,4-difluorophenyl)-3-methyl-L-valyl-(4R)—N-((1R,2S)-1-((cyclopropylsulfonyl)carbamoyl)-2-vinylcyclopropyl)-4-((9-methoxy-4-methyl-3,4-dihydro-2H-[1,4]oxazino[3,2-c]isoquinolin-6-yl)oxy)-L-prolinamide] | > 200 | – |

From patent US7772180B2, “Hepatitis C virus inhibitors” (Bristol-Myers Squibb Company, priority 2006, dated 2010)
